Results taken from paper PMC10396955, “2-Oxabicyclo[2.1.1]hexanes as saturated bioisosteres of the ortho-substituted phenyl ring” (Nature Chemistry, 2023).
≈ marks a conversion by molar mass, not a printed value. Read-outs that look alike come from different tables or passages of the source.

How the values were obtained:
[1] = Kinetic solubility in phosphate-buffered saline, pH 7.4; format: physicochemical; conditions: phosphate-buffered saline, 25 °C, pH 7.4, aqueous buffer, kinetic from dmso stock
Procedure: Analysis of Aqueous Solubility […]
compound (Ondansetron) were assessed for kinetic solubility in phosphate-buffered saline, pH […]
Phosphate buffered saline, pH 7.4 (Sigma-Aldrich, USA; Cat #P3813) […]
MultiScreen HTS 96 Well Filter Plates (Millipore, Ireland; Cat # MSGVS2210) […]
Matrix Multichannel Electronic Pipette 2-125 µL, 5-250 µL, 15-1250 µL (Thermo Scientific, […]
Vacuum pump (Millipore, USA; Model # XX5500000)
The measurements were performed using SpectraMax Plus reader in UV-Vis mode. Acquisition and analysis of the data were performed using SoftMax Pro v.5.4 (Molecular Devices) and Excel […]
Kinetic solubility assay was performed according to the Enamine’s aqueous solubility SOP.
Briefly, using a 20 mM stock solution of the compound in 100% DMSO dilutions were prepared to a theoretical concentration of 400 μM in duplicates in phosphate-buffered saline pH 7.4 […]
for two hours and then filtered through HTS filter plates using a vacuum manifold. The filtrates of test compounds were diluted 2-fold with acetonitrile with 2% DMSO before measuring.
In parallel, compound dilutions in acetonitrile/PBS (1:1) were prepared to theoretical […]
DMSO to generate calibration curves. Ondansetron was used as reference compound to control proper assay performance. 200 μl of each sample was transferred to 96-well plate and measured in 200-550 nm range with 5 nm step.
The concentrations of compounds in PBS filtrate are calculated using a dedicated Microsoft Excel calculation script. Proper absorbance wavelengths for calculations are selected for each compound manually based on absorbance maximums (absolute absorbance unit values for the minimum and maximum concentration points within 0 – 3 OD range). Each of the final datasets is additionally visually evaluated by the operator and goodness of fit (R2) is calculated for each calibration curve. The effective range of this assay is approximately 2-400 μM and the […]

[2] = Metabolic stability in human liver microsomes; format: in vitro ADME; conditions: both sexes; for half-life at 2 µM: read-out: t1/2; for k el at 2 µM: elimination constant, read-out: kel (converted)
Procedure: (§1) The data acquisition and system control was performed using Analyst 1.6.3 software from AB Sciex. Methods Microsomal incubations were carried out in 96-well plates in 5 aliquots of 30 μL each (one for each time point). […] In the control reactions the NADPH-cofactor system was substituted with phosphate buffer. […] Each reaction was performed in duplicates. Five time points over 40 minutes were analyzed. The reactions were stopped by adding 4 volumes of methanol containing internal standard to incubation aliquots, followed by protein sedimentation by centrifuging at 5500 rpm for 4 minutes. […]. Supernatants were analyzed using the HPLC system coupled with tandem mass spectrometer. […] In some cases, the last time point is excluded from the calculations to ensure acceptable logarithmic linearity of decay.

human liver microsomes = assay: Metabolic stability in human liver microsomes; format: in vitro ADME
Procedure: as §1

physchem = format: physicochemical; conditions: for D (partition ratio), incubation 1 / D (partition ratio), incubation 2 / D (partition ratio), incubation 3: Table S2, n-octanol/PBS pH 7.4
Procedure: Determination of Distribution Coefficient (LogD, pH 7.4) […]
n-octanol – phosphate buffered saline (PBS), pH 7.4. Distribution coefficient (or LogD) is a […]
Phosphate buffered saline, tablet (Sigma-Aldrich, USA; Cat # P4417)
Acetic acid (Enamine, Ukraine.)
DMSO stock solutions of the test compounds 10mM
Gradient HPLC system (Shimadzu, Japan)
MTR22 Multi Mix Rotator (UNICO, USA)
Laboratory Centrifuge, Sigma 4-15C, Qiagen (SIGMA GmbH, Germany) […]
allowed to mix in a rotator for 1 h at 30 rpm. Phase separation was assured by centrifugation for […]
dilution. The samples (both phases) were analyzed using a HPLC system coupled with a tandem mass spectrometer. Mebendazole was used as a reference compound. […]
where: SO – peak area of the analyte in octanol phase
S P – peak area of the analyte in PBS buffer do – dilution coefficient for octanol phase dp – dilution coefficient for aqueous phase

[3] = Chemical stability of carboxylic acids (acid, base, storage); format: physicochemical; conditions: room temperature, one day
Text: We also checked the chemical stability of three representative carboxylic acids, 1b, 19b and 22b (Table 2), because we suspected that some of them could decompose via a retro-Michael-type reaction. […] All products were crystalline solids, and we stored all of them in closed vials at room temperature on the shelf.

[4] = Table S1, incubation 1, read-out: PBS solubility, pH 7.4, Incubation 1
[5] = Table S1, incubation 2, read-out: PBS solubility, pH 7.4, Incubation 2
[6] = Table S1, mean of 2 incubations, 2 h, 2% DMSO, effective range approx. 2-400 μM, read-out: PBS solubility, pH 7.4, Mean
[7] = experimental kinetic solubility in phosphate-buffered saline at pH 7.4, Fig. 3, read-out: Solubility
[8] = human, liver microsomes, pH 7.4, human liver microsomes, 2 μM, 37 °C, with NADPH, 7 min
[9] = human, liver microsomes, pH 7.4, human liver microsomes, 2 μM, 37 °C, with NADPH, 15 min
[10] = human, liver microsomes, pH 7.4, human liver microsomes, 2 μM, 37 °C, with NADPH, read-out: % Remaining, Mean of 2
[11] = pH 7.4, human liver microsomes, no NADPH cofactor, ** instability partially or completely not determined by CYP450 activity, read-out: % Remaining without cofactor, Mean of 2
[12] = pH 7.4, LogD, pH 7.4, incubation 1
[13] = pH 7.4, LogD, pH 7.4, incubation 2
[14] = pH 7.4, LogD, pH 7.4, incubation 3
[15] = human, liver microsomes, pH 7.4, human liver microsomes, 0.42 mg protein per ml, Table S3, * approximate due to high stability, read-out: Clint
[16] = human, liver microsomes, pH 7.4, human liver microsomes, * approximate due to high stability
[17] = pH 7.4, human liver microsomes, * approximate due to high stability
[18] = human, liver microsomes, pH 7.4, human liver microsomes, Fig. 3, read-out: CIint, intrinsic clearance

solubility at 2 h [1, 4] | solubility at 2 h [1, 5] | solubility at 2 h [1, 6] | solubility at 2 h [1, 7] | remaining at […], 2 µM [2, 8] | remaining at […], 2 µM [2, 9] | remaining at 25 min, 2 µM [2, 10] | remaining at 40 min, 2 µM [2, 10] | remaining at 40 min, 2 µM [2, 11] | D (partition ratio), incubation 1 (physchem) | D (partition ratio), incubation 2 (physchem) | D (partition ratio), incubation 3 (physchem) | logD at 1 h (physchem; pH 7.4, LogD, pH 7.4 (mean)) | logD at 1 h (physchem; [12]) | logD at 1 h (physchem; [13]) | logD at 1 h (physchem; [14]) | logD at 1 h (physchem; pH 7.4, logD (7.4)) | microsomal CLint at 2 µM [2, 15] | half-life at 2 µM [2, 16] | k el at 2 µM [2, 17] | Structure (SMILES) | other results
151 µM (≈ 61.5 µg/mL) | 164 µM (≈ 66.8 µg/mL) | 158 µM (≈ 64.4 µg/mL) | 101 µM (≈ 41.2 µg/mL) | 97% | 97% | 99% | 100% | 89% | 8.13E-02 | 3.23E-02 | 2.75E-02 | < 1 | < 1 | < 1 | < 1 | < 1 | – | – | – | O=C(O)[C@@H]1[C@@H]2CC[C@@]1(C(=O)Nc1ccc(S(=O)(=O)Nc3nccs3)cc1)C2 (relative stereo) [Compound 32] | metabolic stability (in words) (human liver microsomes; human liver microsomes): metabolically stable
2 µM (≈ 1.4 µg/mL) | 2 µM (≈ 1.4 µg/mL) | 2 µM (≈ 1.4 µg/mL) | 2 ± 0.2 µM (≈ 1.4 µg/mL) | 76% | 41% | 21% | 8% | 91% | 3.53E+08 | 3.40E+06 | 1.71E+05 | > 4.5 | > 4.5 | > 4.5 | > 4.5 | > 4.5 | 157 µL/min/mg | 10.6 min | 0.00108 s⁻¹ | O=C(NC1CCN(CCCCC2(C(=O)NCC(F)(F)F)c3ccccc3-c3ccccc32)CC1)[C@@H]1[C@@H]2CC[C@@]1(c1ccc(C(F)(F)F)cc1)C2 (relative stereo) [Compound 34] | CIint, intrinsic clearance (human liver microsomes; human liver microsomes): 157 µL/min/mg
2 µM (≈ 1.4 µg/mL) | 4 µM (≈ 2.8 µg/mL) | 3 µM (≈ 2.1 µg/mL) | – | 102% | 77% | 36% | 29% | 84% | 1.46E+05 | 1.62E+05 | 8.88E+04 | > 4.5 | > 4.5 | > 4.5 | > 4.5 | > 4.5 | 87 µL/min/mg | 19.2 min | 0.0006 s⁻¹ | O=C(NC1CCN(CCCCC2(C(=O)NCC(F)(F)F)c3ccccc3-c3ccccc32)CC1)[C@@H]1[C@H]2C[C@]1(c1ccc(C(F)(F)F)cc1)CO2 (relative stereo) [Compound 35] | CIint, intrinsic clearance (human liver microsomes; human liver microsomes): 87 µL/min/mg
– | – | – | – | – | – | – | – | – | – | – | – | – | – | – | – | – | – | – | – | O=C(O)C1C2CC1(c1ccccc1)CO2 (centres unmarked) [Compound 1b] | chemical stability ([3]; aqueous 1 M hydrochloric acid): did not lead to any decomposition; chemical stability ([3]; aqueous 1 M sodium hydroxide): did not lead to any decomposition
100 µM (≈ 40.9 µg/mL) | 102 µM (≈ 41.8 µg/mL) | 101 µM (≈ 41.4 µg/mL) | 158 µM (≈ 64.7 µg/mL) | 111% | 111% | 109% | 106% | 92% | 2.39E-01 | 1.93E-02 | 5.50E-01 | -0.87 | -0.62 | -1.72 | -0.26 | < 1 | ~1 µL/min/mg | ~1190 min | – | O=C(O)C1C2CC1(C(=O)Nc1ccc(S(=O)(=O)Nc3nccs3)cc1)CO2 (centres unmarked) [Compound 33] | microsomal CLint at 2 µM [2, 18]: 1 µL/min/mg; metabolic stability (in words) (human liver microsomes; human liver microsomes): metabolically stable
– | – | – | – | – | – | – | – | – | – | – | – | – | – | – | – | – | – | – | – | O=C(O)Cc1ccccc1Nc1c(Cl)cccc1Cl [Diclofenac, reference compound] | kel (human liver microsomes; both, human, 2 µM, pH 7.4): 0.115 min⁻¹; Clint (human liver microsomes; both, human, microsomes, 2 µM, pH 7.4): 276 µL/min/mg; % Remaining, Mean of 2 (human liver microsomes; both, human, microsomes, 25 min, 2 µM, pH 7.4): 8%
3 µM (≈ 2.08 µg/mL) | 3 µM (≈ 2.08 µg/mL) | 3 µM (≈ 2.08 µg/mL) | 3 ± 0.1 µM (≈ 2.08 µg/mL) | 97% | 89% | 49% | 46% | 88% | 5.98E+08 | 3.42E+05 | 6.79E+04 | > 4.5 | > 4.5 | > 4.5 | > 4.5 | > 4.5 | 55 µL/min/mg | 30.4 min | 0.000383 s⁻¹ | O=C(NC1CCN(CCCCC2(C(=O)NCC(F)(F)F)c3ccccc3-c3ccccc32)CC1)c1ccccc1-c1ccc(C(F)(F)F)cc1 [Lomitapide, reference compound] | CIint, intrinsic clearance (human liver microsomes; human liver microsomes): 55 µL/min/mg
– | – | – | – | – | – | – | – | – | 1.27E+03 | 1.32E+03 | 1.33E+03 | 3.12 | 3.1 | 3.12 | 3.12 | – | – | – | – | COC(=O)Nc1nc2ccc(C(=O)c3ccccc3)cc2[nH]1 [Mebendazole, reference compound] | –
169 µM (≈ 68.2 µg/mL) | 171 µM (≈ 69 µg/mL) | – | 170 µM (≈ 68.6 µg/mL) | 97% | 101% | 101% | 96% | 124% | 2.09E-01 | 8.99E-02 | 4.17E-02 | -1.04 | -0.68 | -1.05 | -1.38 | < 1 | ~2 µL/min/mg | ~960 min | ~1.67e-05 s⁻¹ | O=C(O)c1ccccc1C(=O)Nc1ccc(S(=O)(=O)Nc2nccs2)cc1 [Phthalylsulfathiazole, reference compound] | microsomal CLint at 2 µM [2, 18]: 2 µL/min/mg; metabolic stability (in words) (human liver microsomes; human, microsomes): metabolically stable
